Measured values published in US20080131498A1, “PHARMACEUTICAL COMPOSITION, A METHOD OF PREPARING IT AND A METHOD OF TREATMENT BY USE THEREOF” (BUSULIPO AB, priority 1998, published 2008).
“And” between values parts separate entries of the source, which are not always exact repeats. Identical values can stand only once. “Also recorded” adds a separate entry of the source. Like-named read-outs stand apart in the source and are kept apart here.

How the values were obtained:
[1] = tested on: CFU-GM from normal CD34+ hematopoietic progenitor cells; assay: Clonogenic assay of CD34+ cells, CFU-GM (Example 11); assay type: cell-based, human; details: for effect alone on colony formation of CFU-GM or erythroid colonies / effect on busulphan-induced inhibition of colony formation of CFU-GM or erythroid colonies: CD34+ cells; for effect on busulphan-induced inhibition of colony formation of CFU-GM or erythroid colonies: preincubation then busulphan 4.5 or 10 μg/ml for 4 hours
Protocol: (§1) Ten healthy volunteers were recruited after a medical interview. The study followed the guidelines of the local authorities and was approved by the local ethical committee. […] CD34+ cells were separated on a MACS system by positive selection using CD34+ Separation Kit according to the manufacturer's instructions. Cells were incubated in RPMI-1640 medium supplemented with 10% heat inactivated fetal bovine serum at 37° C. in a humidified 5% CO2 atmosphere. Cells used for pharmacodynamic study were incubated in busulphan of final concentrations of 1, 2.5, 5, 10, 20, 40 or 60 μg/ml for 2, 4 or 8 hours. Cells used for the GSH modulation part were treated with N-acetyl-L-cysteine (NAC) (1 mM) or L-buthionine-[S,R]-sulfoximine (BSO) (50 μM) for 16 to 18 hours, followed by busulphan in final concentrations of 4.5 or 10 μg/ml for 4 hours. After incubation, cells were washed and plated for clonogenic assay.
(§2) CD34+ cells were treated with NAC, BSO, DMSO or busulphan alone or in combinations, washed and 2000 cells were plated in 1.1 ml of MethoCult™ GF H4434 in 35 mm Petri dishes in triplicates. Colonies were scored on day 14 using an inverted microscope. Murine bone marrow was harvested on day 1, 3, 6, 9 or 12 after the last dose of the treatment. Control group and each treatment group consisted of a minimum of three animals at each time point. Mice were sacrificed under general anaesthesia. Both femurs were removed and bone marrow was flushed out under sterile conditions. Cells were counted in Türk solution and nucleated cells (0.5×10^5) were plated in 1.1 ml of MethoCult™ GF M3534 in 35 mm Petri dishes in triplicates. The plates were placed in incubator (37° C., 5% CO2 and 100% humidity). CFU-GM, equal to or more than 50 cells, were counted on the day 7 using an inverted microscope.

[2] = tested on: GSH intracellular content of CD34+ cells; assay: GSH assay in CD34+ cells after NAC or BSO; assay type: cell-based, human; details: preincubation 16 to 18 hours, NAC 1 mM or BSO 50 μM
Protocol: as §1, with “After incubation, cells were washed and plated for clonogenic assay.” left out
(§3) Intracellular concentrations of GSH were determined using the enzymatic assay according to Tietze (Tietze, F. Enzymic method for quantitative determination of nanogram amounts of total and oxidized glutathione: applications to mammalian blood and other tissues. Anal Biochem, 27: 502-522., 1969). Total cellular protein was assessed according to Lowry after dissolving the precipitate in 1M NaOH (Lowry, O. H., Rosebrough, N. J., Farr, A. L., and Randall, R. J. Protein measurement with the folin phenol reagent. J Biol Chem, 193: 265-275., 1951)

[3] = tested on: GSH intracellular level of P39 cells; assay: GSH assay in P39 cells after NAC or BSO; assay type: cell-based, human
Protocol: (§4) The P39 cell line was kindly provided by Prof Y. Yoshida, Center for South East Asian Studies, Kyoto University, Kyoto, Japan. Cells were cultured in RPMI-1640 medium supplemented with 10% heat inactivated fetal bovine serum (FBS), penicillin (25 IU/ml) and streptomycin (25 μg/ml) at 37° C. in a humidified 5% CO2 atmosphere. Exponentially growing cells were used in all experiments. Cells were incubated with N-acetyl-L-cysteine (1 mM) or L-buthionine-[S,R]-sulfoximine (50 μM) for 16 to 18 hours and then with busulphan in final concentrations of 10, 20 or 40 μg/ml for 4 hours. After incubation, cells were washed and re-cultured in busulphan-free medium for 72 hours.
as §3

myeloid P39 cell line = assay: Proliferation, clonogenicity and apoptosis in P39 cells; assay type: cell-based, human; details: for effect on proliferation of busulphan treated P39 cells ([^3H]thymidine incorporation) / effect on the effect of busulphan on clonogenic capacity of P39 cells / effect on levels of apoptosis induced by busulphan in P39 cells: pretreatment; for effect on the effect of busulphan on clonogenic capacity of P39 cells: busulphan 10, 20 or 40 μg/ml 4 hours; for effect on levels of apoptosis induced by busulphan in P39 cells: data not shown
Protocol: as §4
Proliferation was assessed using the [^3H]thymidine incorporation assay. Clonogenic capacity was determined in 0.9% methylcellulose and apoptosis with morphology in May-Grünwald-Giemsa staining as described in (Hassan, Z., Hassan, M., and Hellstrom-Lindberg, E. The pharmacodynamic effect of busulfan in the P39 myeloid cell line in vitro. Leukemia, 15: 1240-1247, 2001).

CFU-GM = assay: Busulphan-induced myelosuppression in mice with GSH modulators, CFU-GM assay; assay type: in vivo, Balb/c mice; details: for effect of combination on the myelosuppressive effect of busulphan: NAC 1.38 mmol/kg orally or BSO 0.93 mmol/kg ip before busulphan
Protocol: Balb/c mice were purchased from B&K Universal Limited, Sweden. Female mice were 6 to 12 weeks old with a weight ranging from 20 to 24 g. Local animal ethical committee approved animals housing conditions and experimental design. Animals were fed with standard pelleted food and water ad libitum. […] Treatment consisted of N-acetyl-L-cysteine (1.38±0.07 mmol/kg) orally or L-buthionine-[S,R]-sulfoximine (0.93±0.03 mmol/kg) intraperitoneally followed by liposomal busulphan (37±1.4 mg/kg) intraperitoneally. Animals were sacrificed at day 1, 3, 6, 9 or 12 after the last dose of treatment.
Liposomal busulphan was used in the in vivo study and prepared as described in example 1. Liposomal busulphan was prepared freshly before each experiment and stored in refrigerator until use.
as §2

[4] = Busulphan AUC before and after NAC in patients (Example 12); assay type: in vivo, human patients; details: for AUC: plasma
Protocol: Busulphan was given twice daily.
Busulphan was determined using gas chromatography with electron capture detector. Internal standard (1,5-bis(methanesulphonyloxy) pentane) was added to 0.5 ml plasma. Busulphan and internal standard were converted to 1,4-diiodobutane and 1,5-diiodopentane, respectively.

[5] = NAC therapy during conditioning prior to allogeneic SCT: liver function, VOD, course of transplantation (Example 12)
Description: Ten patients, who underwent allogeneic stem cell transplantation (SCT) were included in the study. Six patients were transplanted with stem cells from matched unrelated donors, three with stem cells from HLA (Human Leukocyte Antigen) identical sibling donors and one with cord blood. The patients were included on the basis of high risk for hepatic toxicity. […] All patients had been tested negative for viral hepatitis B and C during pre-transplantation evaluation.
The initial busulphan dose given to these patients was 4 mg/kg/day. Busulphan was given twice daily. In cases of high busulphan serum concentrations the dose was reduced during conditioning as described below. […] Nine patients were given NAC during conditioning with busulphan. Treatment with NAC was given once daily as a three-hour infusion, 100 mg per kg body weight starting six hours after the previous busulphan dose and ending three hours before the following dose. The number of NAC doses given during and after busulphan treatment among the patients is described in Table 9. […] When restarted, NAC was administered not earlier than twelve hours after the end of cyclophosphamide infusion. The treatment was continued until elevated liver transaminases were normalized or, if normal transaminases at initiation of therapy, until conditioning was completed.
Tissue typing, conditioning, GVHD prophylaxis and infectious prophylaxis were performed as generally known to the skilled person. In short, the patients were treated in reversed isolation, immunosuppression consisted of four doses of methotrexate combined with cyclosporine and antithymocyte globuline, (Thymoglobulin, Sangstadt, Lyon, France), was given to recipients of unrelated stem cells.

[6] = tested on: Erythroid colonies from normal CD34+ hematopoietic progenitor cells; assay: Clonogenic assay of CD34+ cells, erythroid colonies (Example 11); assay type: cell-based, human; details: bone marrow donors BM 1-5 and Mean
Protocol: as §1
CD34+ cells were treated with NAC, BSO, DMSO or busulphan alone or in combinations, washed and 2000 cells were plated in 1.1 ml of MethoCult™ GF H4434 in 35 mm Petri dishes in triplicates. Colonies were scored on day 14 using an inverted microscope. […] Cells were counted in Türk solution and nucleated cells (0.5×10^5) were plated in 1.1 ml of MethoCult™ GF M3534 in 35 mm Petri dishes in triplicates. […] CFU-GM, equal to or more than 50 cells, were counted on the day 7 using an inverted microscope.

[7] = Half-life of busulphan in RPMI-1640 medium (in vitro pharmacokinetics); assay type: physicochemical; details: 37° C.
[8] = 25° C.; cited from earlier work
[9] = tested on: GSH in murine hepatocytes; details: cited from earlier work
[10] = After NAC therapy, one line per patient
[11] = After conditioning, one line per patient

## CCCCS(=N)(=O)CC[C@H](N)C(=O)O (stereo partly drawn) [BSO, L-buthionine-[S,R]-sulfoximine]
[1]
  effect alone on colony formation of CFU-GM or erythroid colonies: did not influence
  effect on busulphan-induced inhibition of colony formation of CFU-GM or erythroid colonies: Neither did preincubation of CD34+ cells with BSO change; also recorded: no additive effect
[2]
  GSH intracellular content compared to CD34+ cells incubated in medium: 50±9% and 50%
[3]; BSO 50 μM 16 to 18 hours
  decrease of GSH compared to cells cultured in medium: 80%
Myeloid P39 cell line; alone, immediately at the end of incubation, full recovery after 24 hours
  decrease of clonogenic capacity of P39 cells: 50%
Myeloid P39 cell line; busulphan 10 μg/ml, immediately after the end of incubation
  combined effect with busulphan on P39 cells: Additive effect
Myeloid P39 cell line
  effect on proliferation of busulphan treated P39 cells ([^3H]thymidine incorporation): did not influence the proliferation
  effect on the effect of busulphan on clonogenic capacity of P39 cells: neither NAC nor BSO influenced
  effect on levels of apoptosis induced by busulphan in P39 cells: did not change the levels of apoptosis
CFU-GM
  effect alone on CFU-GM formation compared to the control group: Neither NAC nor BSO influenced
  effect of combination on the myelosuppressive effect of busulphan: did not change the level of myelosuppression

## CC(=O)N[C@@H](CS)C(=O)O [NAC, N-acetyl-L-cysteine]
[1]
  effect alone on colony formation of CFU-GM or erythroid colonies: did not influence
  effect on busulphan-induced inhibition of colony formation of CFU-GM or erythroid colonies: did not affect
[2]
  GSH intracellular content compared to CD34+ cells incubated in medium: 150±30%
[3]; NAC 1 mM 16 to 18 hours
  increase of GSH intracellular level compared to cells cultured in medium: 10%
Myeloid P39 cell line
  effect on proliferation of busulphan treated P39 cells ([^3H]thymidine incorporation): did not influence the proliferation
  effect on the effect of busulphan on clonogenic capacity of P39 cells: neither NAC nor BSO influenced
  effect on levels of apoptosis induced by busulphan in P39 cells: did not change the levels of apoptosis
CFU-GM
  effect alone on CFU-GM formation compared to the control group: Neither NAC nor BSO influenced
  effect of combination on the myelosuppressive effect of busulphan: did not significantly influence
[4]; human, in vivo
  effect on busulphan serum concentrations: not affected
[5]; [10]
  ALT: 0.77 ukat/L and 1.19 ukat/L and 0.61 ukat/L and 0.52 ukat/L
  AST: 0.29 ukat/L and 0.33 ukat/L and 0.42 ukat/L and 0.49 ukat/L
  Bilirubin: 9 µmol/L and 19 µmol/L and 7 µmol/L and 6 µmol/L
[5]; [11]
  ALT: 4.11 ukat/L and 3.45 ukat/L and 0.78 ukat/L and 2.24 ukat/L
  AST: 1.76 ukat/L and 1.50 ukat/L and 0.40 ukat/L and 0.82 ukat/L
  Bilirubin: 4 µmol/L and 12 µmol/L and 11 µmol/L and 6 µmol/L
[5]; Before NAC therapy, one line per patient, normal range <0.8
  ALT: 1.51 ukat/L and 2.25 ukat/L and 0.59 ukat/L and 8.10 ukat/L
[5]; Before NAC therapy, one line per patient, normal range <0.80
  AST: 0.85 ukat/L and 0.96 ukat/L and 0.38 ukat/L and 11.2 ukat/L
[5]; Before NAC therapy, one line per patient, normal range <26
  Bilirubin: 4 µmol/L and 5 µmol/L and 8 µmol/L and 3 µmol/L
[5]; Day of SCT = day 0, one line per patient
  Engraftment WBC day, ≧0.5 × 10^9/L: 13 day (2×) and 12 day (3×) and 15 day and 24 day and 10 day and 14 day and 16 day
[5]; Day of SCT = day 0, one line per patient, NAC during conditioning
  First day of WBC ≦0.5 × 10^9/L: 1 day and −1 day (2×) and −3 day and 0 day and 4 day and 5 day and 6 day and 2 day and −2 day
[5]; in vivo
  liver transferases after treatment in patients elevated at initiation: less elevated test results after treatment
  side effects related to the NAC infusions: no side effects related to the NAC infusions were observed
[5]; one line per patient
  Chimerism at 1 month post SCT: 100% donor
  Patient outcome: Died day
  Recurrence of the malignancy: No (9×) and 15 mo after
[5]; ten patients
  neutropenia: Neutropenia developed in all patients
[5]; ten patients at high risk of VOD
  VOD or fatal liver toxicity: None of the patients developed VOD or fatal liver toxicity
[5]; three months after SCT, five patients
  donor origin of hematopoietic cells (CD3+, Cd19+, CD45+) in peripheral blood: 100%

## CS(=O)(=O)OCCCCOS(C)(=O)=O [busulphan, 1,4-bis-(methanesulphonyloxy)butan]
[1]; CFU-GM, bone marrow donors BM 1-5 and Mean
  I-AUC100 (AUC inhibiting colony formation by 100%): 69.33 µg·h/mL and 56.01 µg·h/mL and 74.14 µg·h/mL and 69.46 µg·h/mL and 74.38 µg·h/mL
[6]
  I-AUC50 (AUC inhibiting colony formation by 50%): 31.54 µg·h/mL and 18.13 µg·h/mL and 24.68 µg·h/mL and 30.12 µg·h/mL and 26.96 µg·h/mL
[6]; mean
  I-AUC50 (AUC inhibiting colony formation by 50%): 26.29 µg·h/mL
CFU-GM; liposomal busulphan 37±1.4 mg/kg ip once a day for 4 days
  myelosuppression (CFU-GM colony-formation assay): stable myelosuppression on days 3 through 12
[4]; After NAC, one line per patient
  Busulphan AUC corrected for 2 mg/kg: 10385 ng·h/mL and 12350 ng·h/mL and 15230 ng·h/mL and 10043 ng·h/mL and 19445 ng·h/mL and 12828 ng·h/mL
[4]; human, 2 mg/kg, Busulphan AUC corrected for 2 mg/kg, After NAC, one line per patient
  AUC: 14800 ng·h/mL
[4]; human, oral, 4 mg/kg/day, patients no 2, 4 and 8, in this order, before NAC, read-out: AUC after the first dose of busulphan
  AUC: 20500 ng·h/mL
[4]; human, oral, patients no 2, 4 and 8, in this order, doses reduced by 35, 15 and 30%, read-out: mean values of the AUC's during doses 4-8
  AUC: 11400 ng·h/mL
[4]; patients no 2, 4 and 8, in this order, before NAC
  AUC after the first dose of busulphan: 15527 ng·h/mL and 16122 ng·h/mL
[4]; patients no 2, 4 and 8, in this order, doses reduced by 35, 15 and 30%
  mean values of the AUC's during doses 4-8: 10551 ng·h/mL and 12122 ng·h/mL
[7]
  half-life: 16 h
  k (C=C0.e^−kt): 0.043
[8]
  water solubility: less than 1 microgram/ml
[9]; in vitro
  GSH depletion in murine hepatocytes: 50%
[9]; in vivo
  GSH depletion in murine hepatocytes: 60%
